In a melting point compilation (Tetko et al.; mined from patent text by program, amines drawn as free bases though some values may be those of a salt) one finds melting point data, which are given here for 88 compounds.

As to `COc1cc(-c2ccc3cc4c(cc3c2C=O)OCO4)c([N+](=O)[O-])cc1OC`, the melting point (as a rule, the temperature, or range, at which the solid turns liquid) is 225 °C.

`CCc1nc2c(N)nc3ccccc3c2o1` displayed a melting point of 175 to 178 °C.

As to `O=S(CCc1ccccc1)CCc1ccccc1`, the melting point was 70 to 71 °C.

The compound `O=C(NC(CCc1ccccc1)C(=O)Nc1n[nH]c(=S)s1)OCC1c2ccccc2-c2ccccc21` (stereo not drawn) displayed a melting point of 186 to 187 °C.

Consider `N#Cc1cccc(C(=O)Cn2cncn2)c1`, for which the melting point fell in the range of 172 to 173 °C.

`CCOC(=O)c1c(-c2cccc(Cl)c2)noc1C` returned a melting point of 71 to 73 °C.

Consider `CN1C(=O)N(c2ccc(Cl)cc2)S[N+]1(C)[O-]` (stereo not drawn), for which the melting point lay in the range of 83 to 85 °C.

`CC(C)(C)OC(=O)N1CCN(c2ccc([N+](=O)[O-])cc2)CC1` yielded a melting point of 136 to 140 °C.

Turning to `CN1C(=O)C2C3CCC(C3)C2(c2ccc(N)cc2)C1=O` (stereo not drawn), the melting point lay in the range of 131 to 133 °C.

On to `CN1CCN(c2cccc3c2C[C@H](NC(=O)c2ccc(N4CCNCC4)cc2)CO3)CC1`, for which the melting point was greater than 102 °C.

Turning to `COc1ccc(Cn2c3ccccc3c3c(N)c(C(=O)O)c(C)nc32)cc1`, the melting point lay within 206 to 208 °C.

`CCOC(=O)C1CCCN(c2ccc([N+](=O)[O-])c(C=C3NC(=O)NC3=O)c2)C1` (stereo not drawn) came in with a melting point of 223 to 225 °C.

`O=C(c1ccc(Br)cc1)N1CC(=O)N2CCc3ccccc3C2C1` (stereo not drawn) registered a melting point of 204 to 206 °C.

Take `CCCCOCCOc1ccc(-c2ccc3c(c2)C=C(C(=O)Nc2ccc(CSc4nnc(C)o4)cc2)CCN3CC(C)C)cc1`: the melting point was 107 to 109 °C.

The compound `Cc1ccsc1C(=O)Nc1ccc(I)cc1` registered a melting point of 141 to 142 °C.

In turn, `CC(C)(C)OC(=O)N(C(=O)OC(C)(C)C)c1c(C#CBr)c(C#N)nn1-c1c(Cl)cc(C(F)(F)F)cc1Cl` returned a melting point of 130 to 131 °C.

In the case of `O=C1CCC2(CCC(=O)c3ccccc32)C(=O)N1` (stereo not drawn), the melting point lay within 197 to 199 °C.

The compound `COc1ccc(OCCO[N+](=O)[O-])c(C2NC(C(=O)O)CS2)c1` (stereo not drawn) displayed a melting point of 110 to 112 °C.

For `CC1CCc2cc(C3=NNC(=O)C4CC34)ccc2NC1=O` (stereo not drawn), the melting point is 305 to 307 °C.

`O=CNc1cccc2c1C(=O)c1c-2n[nH]c1-c1ccncc1` had a melting point greater than 300 °C.

`COCOc1cc(C(C)(C)C)ccc1C(=O)O` returned a melting point of 72 °C.

In turn, `Cc1nc(SCC(=O)c2cc(-c3ccc(C(F)(F)F)cc3)oc2C)sc1CC(=O)O` registered a melting point of 140 to 143 °C.

Turning to `COCCCc1ccc2oc(-c3cc4cccn4cn3)cc(=NO)c2c1`, the melting point lay in the range of 172 to 173 °C.

`COc1cc(C2OCCO2)cc(C#N)c1OC` yielded a melting point of 76.5 to 77.5 °C.

As to `COc1ccc(NS(C)(=O)=O)nc1`, the melting point is 156 to 158 °C.

Consider `O=C(Nc1nc(/C=C/c2ccc([N+](=O)[O-])cc2)cs1)c1ccccc1`, for which the melting point fell in the range of 224 to 225 °C.

As for `Cc1cc(-c2nc3cccnn3c2-c2ccnc(NC(=O)NCC(C)C)c2)ccc1F`, the melting point lay within 213 to 214 °C.

On to `COC(=CCl)C1(O)CCC2C3CCC4=CC(=O)CCC4(C)C3=CCC21C` (stereo not drawn), for which the melting point was 197 to 199 °C.

`Cc1c(F)c(N2CCCC(n3ccnn3)C2)c(F)c2c1c(=O)c(C(=O)O)cn2C1CC1` (stereo not drawn): the melting point was 227 to 228 °C.

Compound `CC1C(C)(C)c2ccc(O)cc2C1(C)C` (stereo not drawn) gave a melting point of 149 °C.

For `O=C1C(CCO)Oc2cc([N+](=O)[O-])ccc2N1Cc1cccc([N+](=O)[O-])c1` (stereo not drawn), the melting point lay within 157 to 160 °C.

As for `Cc1cc(C(=CC(=O)c2ccc(Cl)cc2)C(F)(F)F)ccc1NC(=O)OC(C)(C)C`, the melting point lay in the range of 72 to 74 °C.

In turn, `C=C(C)C(=O)NCCCCCCCCCCCC(=O)O` yielded a melting point of 70.8 to 72.4 °C.

`O=C(NC1CCN(CCOC(=O)c2ccccc2)CC1)c1ccccc1`: the melting point is 139 to 140 °C.

`CCOC(=O)/C=C/S(=O)(=O)c1ccc(C(C)(C)C)cc1` displayed a melting point of 88 to 91 °C.

Regarding `CC(C)(C)OC(=O)C=Cc1ccc(NC(=O)C=C2CC(C(=O)O)Nc3ccccc32)cc1` (racemic), the melting point was 140 °C.

With `CN1CCC(Cc2ccc(Cl)nc2)C1=C[N+](=O)[O-]` (stereo not drawn), the melting point is 141 to 142 °C.

As for `CCCCNC(=O)Nc1ccc(N(C)C)cc1C(=O)NCC1CCN(C(c2ccccc2)c2ccccc2)CC1`, the melting point was 201 to 203 °C.

With `C=CC(c1ccccc1)c1cc(C)c2c(c1O)C(=NO)CC2` (stereo not drawn), the melting point came to 146 °C.

Turning to `Cc1cc(NC(=O)C(C)(O)COc2ccc(OCCBr)cc2)ccc1[N+](=O)[O-]` (stereo not drawn), the melting point lay within 135 to 138 °C.

In turn, `Clc1nc(Cl)nc(NNc2nc(Cl)nc(Cl)n2)n1` displayed a melting point greater than 250 °C.

`NC(=O)OC[C@@H]1[C@H](NC(=O)/C(=N\OCC(=O)O)c2csc(N)n2)C(=O)N1S(=O)(=O)O` showed a melting point of 207 °C.

As to `C=Cc1c(F)c(N2CC3CN(C)CC3C2)c(F)c2c1c(=O)c(C(=O)O)cn2C1CC1` (stereo not drawn), the melting point was in the range of 156 to 157 °C.

In the case of `COc1cc2ncc(C#N)c(Nc3ccc(O)c(Cl)c3)c2cc1OC`, the melting point was 230 to 232 °C.

Compound `N=c1c2ccccc2ccc2ccccc12` showed a melting point of 60 to 62 °C.

In turn, `Cc1c(C(O)c2ccccc2)nc2n1CCc1ccccc1C2OC1CCN(C)CC1` (stereo not drawn) returned a melting point of 85 °C.

As for `CCOC(=O)C(=CNc1nnc(C(F)(F)F)s1)C(=O)c1cc(F)c(Cl)nc1Cl`, the melting point lay within 73 to 76 °C.

Regarding `Cc1cc(C)cc(S(=O)(=O)n2c(CCCC(=O)O)cc3nc(Cl)ccc32)c1`, the melting point is 200 °C.

As for `CC1CN(c2n[nH]c(-c3ccc(Cl)cc3)c2-c2ccncc2)CCN1` (stereo not drawn), the melting point was in the range of 235 to 237 °C.

The compound `CC(=O)Nc1ccc(F)cc1OCCOc1ccc(N)cc1F` came in with a melting point of 134 to 136 °C.

For `CCOC(=O)Cc1nc(-c2ccc(Cl)cc2)sc1Sc1ccccc1`, the melting point fell in the range of 71 to 73 °C.

In turn, `O=Cc1[nH]ccc1-c1ccc(I)cc1` displayed a melting point of 153 to 154 °C.

`CCCCOc1ccc(CNC(=O)c2ccccc2[N+](=O)[O-])cc1` displayed a melting point of 101 to 102 °C.

The compound `COc1cccc2nc(C(F)(F)F)oc(=O)c12` had a melting point of 88 to 91 °C.

In the case of `CCOc1cc(C(=O)OC)on1`, the melting point is 77 to 79 °C.

`O=C(O)COc1cccc2c1CCC(Cc1c[nH]c(C(c3ccccc3)c3ccccc3)n1)C2` (stereo not drawn) registered a melting point of 170 °C.

`O=C(O)c1cc2ccsc2cn1` showed a melting point of 246 °C.

Consider `CCCN1CCO[C@@H]2c3cc4c(=O)n(OC)ccc4cc3CC[C@H]21`, for which the melting point is 142 to 145 °C.

In turn, `O=C(c1ccc(Cl)cc1)N1CCC(=Cc2ccc(C3=NCCO3)cc2)CC1` gave a melting point of 163 to 164 °C.

For `O=C(O)c1cc(CCNS(=O)(=O)c2ccccc2)c2cccccc1-2`, the melting point was 193 to 195 °C.

The compound `O=C1CCc2c(Cl)cc(Cl)c(OS(=O)(=O)C(F)(F)F)c21` returned a melting point of 90 to 96 °C.

As for `CC(C)(C)OC(=O)CN1CC(c2ccsc2)SCC(N)C1=O` (stereo not drawn), the melting point is 115 to 117 °C.

Compound `CS(=O)(=O)Nc1ccc2[nH]c(=O)n(CCCCN3CC=C(c4ccccc4)CC3)c(=O)c2c1` had a melting point of 193 to 195 °C.

As for `COc1ccc(OC(CCCN(C)C2C3CCC2CNC3)c2ccc(C#N)cc2)cc1OC` (stereo not drawn), the melting point fell in the range of 47 to 53 °C.

Compound `CC(C)c1nc(CCO)n(Cc2ccc([N+](=O)[O-])cc2)c1Sc1cc(Cl)cc(Cl)c1` showed a melting point of 142 to 145 °C.

Regarding `CN(Cc1ccccc1)c1nc(N2CCOCC2)nc(-n2c(C(F)F)nc3ccccc32)n1`, the melting point fell in the range of 147 to 150 °C.

In turn, `CNC(=O)c1c(-c2ccccc2)noc1C=C(N)c1ccccc1` displayed a melting point of 181 to 183 °C.

Compound `CC12CC(=O)C3C(CCC4CC(O)CCC43C)C1CCC2C(=O)O` (stereo not drawn) gave a melting point of 265 to 270 °C.

With `CC12CCC3c4ccc(C(=O)O)cc4CCC3C1CCC2C(=O)c1cccc2ccccc12` (stereo not drawn), the melting point amounted to 228 °C.

Compound `CN1CCc2c(Br)sc(Br)c2C(c2ccccc2)C1` (stereo not drawn) returned a melting point of 83 °C.

Turning to `O=CNCCN1CCC(Nc2nc3ccccc3n2Cc2ccc(F)cc2)CC1`, the melting point came to 153 °C.

`Nc1c(-c2ccc(-c3ccccc3F)cc2)nc2ccc(C(F)(F)F)cc2c1C(=O)O` registered a melting point of 255 to 260 °C.

`COc1cccc(-c2ccc(O)cc2)c1` came in with a melting point of 93 to 95 °C.

Compound `CON(CCCCn1c(C)nc2c(N)nc3ccccc3c21)C(N)=O` yielded a melting point of 158 to 160 °C.

`COC(=O)CC=C1CCC2C3CCC4=CC(=O)CCC4(C)C3CCC12C` (stereo not drawn) returned a melting point of 149 to 151 °C.

In turn, `COc1ccc(S(=O)(=O)c2ncn(-c3ccccc3)c2-c2ccccc2)cc1` displayed a melting point of 157 °C.

`CC1(C)CC(NC(=O)c2cc(C(C)(C)C)c(O)c(C(C)(C)C)c2)CC(C)(C)N1` yielded a melting point of 256 to 258 °C.

For the compound `CSc1ccn2nc(S(=O)(=O)Nc3c(Cl)cccc3Cl)nc2n1`, the melting point lay within 239 to 243 °C.

As for `COc1cccc(C2=C(C#N)C(c3cccc4nsnc34)c3c[nH]nc3N2)c1` (stereo not drawn), the melting point was determined as 220 °C.

The compound `C#CCOc1nc(N)c(C(F)(F)F)cc1Cl` came in with a melting point of 56 to 58 °C.

`NCC1CCc2[nH]c3ccc(Cl)c(Cl)c3c2C1` (stereo not drawn) had a melting point of 169 to 170 °C.

Turning to `NS(=O)(=O)c1ccc(-n2nc(C(F)(F)F)c(Cl)c2-c2ccc(-c3cncs3)c(Cl)c2)cn1`, the melting point was in the range of 191 to 193 °C.

`O=CNC1CCCc2sc(Br)cc21` (stereo not drawn) returned a melting point of 104 to 108 °C.

Compound `COc1c(C(=O)O)csc1S(=O)(=O)Oc1ccc(-c2c3ccccc3c(Br)c3sc(C)c(C)c23)cc1C1CCCC1` showed a melting point greater than 225 °C.

With `C=CCOCN1C(C)=C(C(=O)OCC)C(c2cccc([N+](=O)[O-])c2)C(C(=O)OCC)=C1C`, the melting point fell in the range of 111 to 112 °C.

The compound `COc1ccc(C(C)(O)Cc2ccncc2)cc1OC1CCCC1` (stereo not drawn) displayed a melting point of 99 to 101 °C.

In the case of `CCc1cc(C(F)(C(F)(F)F)C(F)(F)C(F)(F)F)cc(C)c1NC(=O)c1cccc(NC(=O)c2ccc(C#N)cc2C)c1OC` (stereo not drawn), the melting point was 104 to 105 °C.

The compound `CNC(=O)NN=Cc1ncc([N+](=O)[O-])n1C` registered a melting point of 221 to 223 °C.
